{"source": "patent US12173018B2", "about": "“Penicillin-binding protein inhibitors” (priority 2018, dated 2024)", "key": {"[1]": {"molecular_target": "E. coli PBP2 (Escherichia coli (strain K12), UniProt P0AD65)", "sequence (P0AD65 whole entry)": "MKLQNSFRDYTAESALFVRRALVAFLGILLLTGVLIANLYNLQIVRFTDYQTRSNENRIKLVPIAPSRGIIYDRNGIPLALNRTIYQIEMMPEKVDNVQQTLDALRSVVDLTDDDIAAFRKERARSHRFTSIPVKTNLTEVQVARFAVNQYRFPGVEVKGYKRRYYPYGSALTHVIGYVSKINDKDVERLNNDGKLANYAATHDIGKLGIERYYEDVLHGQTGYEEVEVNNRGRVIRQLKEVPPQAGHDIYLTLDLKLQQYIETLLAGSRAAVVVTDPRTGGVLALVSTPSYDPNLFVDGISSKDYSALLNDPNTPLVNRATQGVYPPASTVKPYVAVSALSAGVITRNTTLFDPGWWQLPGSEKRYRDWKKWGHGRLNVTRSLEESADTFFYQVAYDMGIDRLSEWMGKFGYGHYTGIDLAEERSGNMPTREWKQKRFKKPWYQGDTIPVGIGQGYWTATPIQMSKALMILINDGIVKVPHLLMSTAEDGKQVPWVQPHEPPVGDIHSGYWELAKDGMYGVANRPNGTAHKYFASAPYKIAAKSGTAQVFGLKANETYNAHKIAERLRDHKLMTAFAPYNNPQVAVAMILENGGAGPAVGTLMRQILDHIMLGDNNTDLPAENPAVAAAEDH", "assay": "E. coli PBP2 Bocillin-FL fluorescence polarization competition binding assay", "how_it_was_run": "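Fluorescence polarization competition with Bocillin-FL (0.1 μM final) and purified PBP2 (1.5 μM final) in 50 mM Hepes pH 8.0, 300 mM NaCl, 5% glycerol. FP (ex 490/em 520 nm) read for 90 min after Bocillin-FL addition; EC50 is the inhibitor concentration reducing Bocillin-FL binding by half.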"}, "[2]": {"system": "engineered strain of Escherichia coli harboring CTX-M15", "assay": "microbe, parasite or virus in culture", "format": "cell-based", "conditions": "Escherichia coli"}, "[3]": {"conditions": "fluorescence polarization competition binding with Bocillin-FL, read-out: E. coli K12 PBP2 Potency (EC50)"}, "[4]": {"conditions": "read-out: Microbiological Activity (MIC in mg/L), E. coli DH5α/pLBII-CTX-M15, engineered strain producing CTX-M15"}}, "note": "Read-outs that look alike come from different tables or passages of the source.", "data": [{"compound": "CCN1CCN(C(=O)NC(C(=O)N[C@H]2Cc3cccc(C(=O)O)c3OB2O)c2ncc(O)cc2F)C(=O)C1=O", "note": "(stereo partly drawn) [Example 135, (3R)-3-(2-(4-ethyl-2,3-dioxopiperazine-1-carboxamido)-2-(3-fluoro-5-hydroxypyridin-2-yl)acetamido)-2-hydroxy-3,4-dihydro-2H-benzo[e][1,2]oxaborinine-8-carboxylic acid]", "values": [{"measurement": "EC50", "setting": "[1]; [3]", "value": "30 to 500", "unit": "µM"}]}, {"compound": "CCN1CCN(C(=O)NC(C(=O)N[C@H]2Cc3cccc(C(=O)O)c3OB2O)c2cccs2)C(=O)C1=O", "note": "(stereo partly drawn) [Example 115, (3R)-3-(2-(4-ethyl-2,3-dioxopiperazine-1-carboxamido)-2-(thiophen-2-yl)acetamido)-2-hydroxy-3,4-dihydro-2H-benzo[e][1,2]oxaborinine-8-carboxylic acid]", "values": [{"measurement": "MIC", "setting": "[2]; [4]", "value": "32 to 64", "unit": "mg/L"}]}, {"compound": "CCN1CCN(C(=O)NC(C(=O)N[C@H]2Cc3cccc(C(=O)O)c3OB2O)c2ncc(O)cc2Cl)C(=O)C1=O", "note": "(stereo partly drawn) [Example 150, (3R)-3-(2-(4-ethyl-2,3-dioxopiperazine-1-carboxamido)-2-(3-chloro-5-hydroxypyridin-2-yl)acetamido)-2-hydroxy-3,4-dihydro-2H-benzo[e][1,2]oxaborinine-8-carboxylic acid]", "values": [{"measurement": "EC50", "setting": "[1]; [3]", "value": "> 500", "unit": "µM"}]}, {"compound": "CCN1CCN(C(=O)NC(C(=O)N[C@H]2Cc3cccc(C(=O)O)c3OB2O)c2cccc(N)n2)C(=O)C1=O", "note": "(stereo partly drawn) [Example 104, (3R)-3-(2-(6-aminopyridin-2-yl)-2-(4-ethyl-2,3-dioxopiperazine-1-carboxamido)acetamido)-2-hydroxy-3,4-dihydro-2H-benzo[e][1,2]oxaborinine-8-carboxylic acid]", "values": [{"measurement": "EC50", "setting": "[1]", "value": "30 to 500", "unit": "µM"}]}, {"compound": "CCN1CCN(C(=O)NC(C(=O)N[C@H]2Cc3ccc(F)c(C(=O)O)c3OB2O)c2ncc(O)cc2Cl)C(=O)C1=O", "note": "(stereo partly drawn) [Example 151, (3R)-3-(2-(3-chloro-5-hydroxypyridin-2-yl)-2-(4-ethyl-2,3-dioxopiperazine-1-carboxamido)acetamido)-7-fluoro-2-hydroxy-3,4-dihydro-2H-benzo[e][1,2]oxaborinine-8-carboxylic acid]", "values": [{"measurement": "EC50", "setting": "[1]; [3]", "value": "> 500", "unit": "µM"}]}, {"compound": "NS(=O)(=O)c1ccc(C(NC(=O)N2CCN(CCF)C(=O)C2=O)C(=O)N[C@H]2Cc3cccc(C(=O)O)c3OB2O)cc1", "note": "(stereo partly drawn) [Example 103, (3R)-3-(2-(4-(2-fluoroethyl)-2,3-dioxopiperazine-1-carboxamido)-2-(4-sulfamoylphenyl)acetamido)-2-hydroxy-3,4-dihydro-2H-benzo[e][1,2]oxaborinine-8-carboxylic acid]", "values": [{"measurement": "EC50", "setting": "[1]; [3]", "value": "> 500", "unit": "µM"}]}, {"compound": "CCN1CCN(C(=O)NC(C(=O)N[C@H]2Cc3cccc(C(=O)[O-])c3OB2O)c2ccc[n+](CC(N)=O)c2)C(=O)C1=O", "note": "(stereo partly drawn) [Example 107, (3R)-3-(2-(1-(2-amino-2-oxoethyl)pyridin-1-ium-3-yl)-2-(4-ethyl-2,3-dioxopiperazine-1-carboxamido)acetamido)-2-hydroxy-3,4-dihydro-2H-benzo[e][1,2]oxaborinine-8-carboxylate]", "values": [{"measurement": "MIC", "setting": "[2]; [4]", "value": "32 to 64", "unit": "mg/L"}]}, {"compound": "CCN1CCN(C(=O)NC(C(=O)N[C@H]2Cc3cccc(C(=O)O)c3OB2O)c2ccc(O)c(O)c2F)C(=O)C1=O", "note": "(some centres unmarked) [Example 70]", "values": [{"measurement": "MIC", "setting": "[2]; [4]", "value": "32 to 64", "unit": "mg/L"}]}, {"compound": "O=C(O)c1cccc2c1OB(O)[C@@H](NC(=O)C(NC(=O)N1CCN(CCF)C(=O)C1=O)c1ccc(O)c(O)c1Cl)C2", "note": "(stereo partly drawn) [Example 71, (3R)-3-(2-(2-chloro-3,4-dihydroxyphenyl)-2-(4-(2-fluoroethyl)-2,3-dioxopiperazine-1-carboxamido)acetamido)-2-hydroxy-3,4-dihydro-2H-benzo[e][1,2]oxaborinine-8-carboxylic acid]", "values": [{"measurement": "MIC", "setting": "[2]; [4]", "value": "8 to 16", "unit": "mg/L"}]}, {"compound": "CCN1CCN(C(=O)NC(C(=O)N[C@H]2Cc3cccc(C(=O)O)c3OB2O)c2ccc(B(O)O)cc2)C(=O)C1=O", "note": "(some centres unmarked) [Example 112]", "values": [{"measurement": "MIC", "setting": "[2]; read-out: Microbiological Activity (MIC in mg/L), E. coli DH5α/pLBII-CTX-M15", "value": "32 to 64", "unit": "mg/L"}]}, {"compound": "O=C(O)c1cccc2c1OB(O)[C@@H](NC(=O)C(NC(=O)N1CCN(CCF)C(=O)C1=O)c1ccc(B(O)O)cc1)C2", "note": "(stereo partly drawn) [Example 113, (3R)-3-(2-(4-boronophenyl)-2-(4-(2-fluoroethyl)-2,3-dioxopiperazine-1-carboxamido)acetamido)-2-hydroxy-3,4-dihydro-2H-benzo[e][1,2]oxaborinine-8-carboxylic acid]", "values": [{"measurement": "MIC", "setting": "[2]; [4]", "value": "32 to 64", "unit": "mg/L"}]}]}
